pIC50: −log10 of the molar value. Like-named read-outs stand apart in the source and are kept apart here.
Experiments:
JAK1 = target: T1, JAK1 (Homo sapiens, UniProt P23458); assay: JAK1 microfluidic kinase assay (Caliper EZ Reader II, FAM labeled peptide substrate); format: biochemical
T1 construct: purchased Carna Biosciences
How it was run: (§1)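 Microfluidic mobility-shift assay on Caliper EZ Reader II, FAM-labelled peptide phosphorylation, in 50 mM HEPES, 0.01% Brij35, 10 mM MgCl2, 2 mM DTT, 1% DMSO; enzyme conditions set for 10% substrate conversion.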

JAK2 = target: T2, JAK2 (Homo sapiens, UniProt O60674); assay: JAK2 microfluidic kinase assay (Caliper EZ Reader II, FAM labeled peptide substrate); format: biochemical
T2 construct: purchased Carna Biosciences
T2 sequence (O60674 whole entry): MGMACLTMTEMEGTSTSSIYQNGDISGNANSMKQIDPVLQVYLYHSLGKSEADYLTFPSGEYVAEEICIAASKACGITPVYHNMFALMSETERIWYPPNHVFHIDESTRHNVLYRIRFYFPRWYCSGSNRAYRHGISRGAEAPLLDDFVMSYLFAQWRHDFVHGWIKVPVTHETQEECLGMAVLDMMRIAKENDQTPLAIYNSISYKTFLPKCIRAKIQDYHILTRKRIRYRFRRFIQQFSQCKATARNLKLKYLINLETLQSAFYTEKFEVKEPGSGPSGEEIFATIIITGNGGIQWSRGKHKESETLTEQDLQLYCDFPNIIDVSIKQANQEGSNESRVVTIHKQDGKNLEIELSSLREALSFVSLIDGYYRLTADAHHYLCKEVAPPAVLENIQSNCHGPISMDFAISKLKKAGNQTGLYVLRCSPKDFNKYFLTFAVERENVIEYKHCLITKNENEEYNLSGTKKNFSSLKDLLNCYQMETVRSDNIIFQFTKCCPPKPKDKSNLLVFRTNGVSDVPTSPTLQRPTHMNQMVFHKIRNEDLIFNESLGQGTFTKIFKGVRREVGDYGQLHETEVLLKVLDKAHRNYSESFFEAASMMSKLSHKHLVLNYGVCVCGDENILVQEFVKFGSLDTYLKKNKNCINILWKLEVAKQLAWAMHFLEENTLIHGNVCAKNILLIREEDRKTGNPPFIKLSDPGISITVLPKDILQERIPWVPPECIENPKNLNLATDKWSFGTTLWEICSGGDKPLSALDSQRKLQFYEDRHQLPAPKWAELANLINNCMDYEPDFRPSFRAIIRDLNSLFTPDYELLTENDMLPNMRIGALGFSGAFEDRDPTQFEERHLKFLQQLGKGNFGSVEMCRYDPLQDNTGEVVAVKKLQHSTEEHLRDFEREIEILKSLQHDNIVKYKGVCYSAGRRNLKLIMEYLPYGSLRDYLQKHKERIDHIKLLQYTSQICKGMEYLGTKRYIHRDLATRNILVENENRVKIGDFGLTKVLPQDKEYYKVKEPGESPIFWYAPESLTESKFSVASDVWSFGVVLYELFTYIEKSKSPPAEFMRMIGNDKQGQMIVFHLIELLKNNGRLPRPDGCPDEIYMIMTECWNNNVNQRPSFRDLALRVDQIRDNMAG
How it was run: as §1

TYK2 = target: T3, TYK2 (Homo sapiens, UniProt P29597); assay: TYK2 microfluidic kinase assay (Caliper EZ Reader II, FAM labeled peptide substrate); format: biochemical; conditions: IC50 TYK2 ([…]) (1 mM ATP), TYK2 […], 1 mM ATP
T3 construct: purchased Carna Biosciences
T3 sequence (P29597 whole entry): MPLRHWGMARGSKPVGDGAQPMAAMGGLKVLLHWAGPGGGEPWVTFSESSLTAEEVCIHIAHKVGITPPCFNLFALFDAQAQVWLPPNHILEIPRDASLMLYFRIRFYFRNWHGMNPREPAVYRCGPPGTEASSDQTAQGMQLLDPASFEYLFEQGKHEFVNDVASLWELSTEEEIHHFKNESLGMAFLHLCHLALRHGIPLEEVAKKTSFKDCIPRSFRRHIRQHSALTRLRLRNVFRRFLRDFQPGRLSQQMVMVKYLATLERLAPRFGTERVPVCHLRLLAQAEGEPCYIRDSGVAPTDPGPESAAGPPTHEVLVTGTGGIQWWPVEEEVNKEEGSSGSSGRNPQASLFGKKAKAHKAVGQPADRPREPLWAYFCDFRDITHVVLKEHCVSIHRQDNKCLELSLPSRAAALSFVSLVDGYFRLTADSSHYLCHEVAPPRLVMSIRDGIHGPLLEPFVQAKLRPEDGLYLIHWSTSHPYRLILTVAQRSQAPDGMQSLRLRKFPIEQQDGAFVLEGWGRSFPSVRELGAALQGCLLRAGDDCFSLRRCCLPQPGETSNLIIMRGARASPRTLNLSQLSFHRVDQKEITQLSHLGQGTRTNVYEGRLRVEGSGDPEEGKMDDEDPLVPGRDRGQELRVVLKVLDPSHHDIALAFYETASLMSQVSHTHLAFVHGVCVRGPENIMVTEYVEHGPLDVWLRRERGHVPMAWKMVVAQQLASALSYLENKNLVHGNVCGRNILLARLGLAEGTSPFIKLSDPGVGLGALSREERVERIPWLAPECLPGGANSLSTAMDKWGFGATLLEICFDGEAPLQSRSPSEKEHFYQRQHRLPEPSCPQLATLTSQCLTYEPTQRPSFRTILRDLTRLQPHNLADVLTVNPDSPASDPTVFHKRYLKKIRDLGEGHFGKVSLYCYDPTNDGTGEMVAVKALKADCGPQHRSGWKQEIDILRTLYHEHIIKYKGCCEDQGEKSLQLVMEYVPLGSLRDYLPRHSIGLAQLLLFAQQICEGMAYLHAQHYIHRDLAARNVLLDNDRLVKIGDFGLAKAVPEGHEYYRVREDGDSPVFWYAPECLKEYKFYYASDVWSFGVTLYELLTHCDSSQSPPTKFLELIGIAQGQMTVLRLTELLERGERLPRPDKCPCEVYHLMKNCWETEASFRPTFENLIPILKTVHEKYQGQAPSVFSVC
How it was run: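 Kinase activity was measured in 50 mM HEPES, 0.01% Brij35, 10 mM MgCl2, 2 mM DTT with enzyme set for 10% peptide conversion. Compounds (3-fold dilutions from 5 μM top, 1% DMSO) were pre-incubated 10 min at ambient temperature. Reaction times: JAK1 120 min, JAK2 20 min, JAK2V617F 30 min, TYK2 10 min. EDTA stop.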

[1] = Liver microsomes study, Phase I stability (HLM); format: in vitro ADME, human; conditions: pH 7.4; human liver microsomes 0.5 mg/mL, 1 μM test article; read-out: HLM Clint
How it was run: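 Rat or human liver microsomes were incubated with test article, and reactions started with an NADPH regenerating system. Samples at 0, 10, 30 and 90 minutes were quenched with cold acetonitrile and analyzed by LC/MS/MS. T½ and CLint came from the ln(% remaining) versus time slope, scaled by protein concentration.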

JAK2V617F = target: T4, JAK2V617F (Homo sapiens, UniProt O60674, V617F); assay: JAK2V617F microfluidic kinase assay (Caliper EZ Reader II, FAM labeled peptide substrate); format: biochemical; conditions: JAK2V617F 2.5 nM, 1 mM ATP
T4 construct: purchased Carna Biosciences
T4 sequence (O60674 whole entry V617F): as the sequence (O60674 whole entry) above, with V617F counted along it
How it was run: as §1

CYP3A4 = target: T5, CYP3A4 (Homo sapiens, UniProt P08684); assay: CYPs inhibition in pooled human liver microsomes, probe substrate Midazolam; format: in vitro ADME
T5 construct: 0.2 mg/mL human liver microsomes was pre-incubated in 180 μL reaction mixture; from tissue; host or cells: pooled human liver microsomes
T5 sequence (P08684 whole entry): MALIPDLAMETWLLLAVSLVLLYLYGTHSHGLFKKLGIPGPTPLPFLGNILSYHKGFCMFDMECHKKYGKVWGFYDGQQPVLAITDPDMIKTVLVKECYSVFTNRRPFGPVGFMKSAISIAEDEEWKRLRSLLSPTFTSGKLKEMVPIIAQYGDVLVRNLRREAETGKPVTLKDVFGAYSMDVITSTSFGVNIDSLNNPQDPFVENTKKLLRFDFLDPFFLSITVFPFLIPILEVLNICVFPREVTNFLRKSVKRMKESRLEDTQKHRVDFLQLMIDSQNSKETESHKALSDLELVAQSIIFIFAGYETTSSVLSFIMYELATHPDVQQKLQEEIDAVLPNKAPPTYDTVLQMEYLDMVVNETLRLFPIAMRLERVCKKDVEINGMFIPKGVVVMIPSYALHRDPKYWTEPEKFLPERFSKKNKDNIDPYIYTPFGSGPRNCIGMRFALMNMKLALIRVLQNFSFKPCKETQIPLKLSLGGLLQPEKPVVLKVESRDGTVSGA
Procedure: (§2) The inhibitory potential of test articles in pooled human liver microsomes was evaluated by the method using a cocktail of CYP substrates. […] For the negative control well, the test articles was replaced with 20 μL reaction buffer. After 10 min of pre-incubation at 37° C., 20 μL 10 mM NADPH cofactor was added to the pre-reaction mixtures. After another 10 min incubation, the reaction was stopped by adding 400 μL of ice cold acetonitrile solution containing tolbutamide and labetalol served as internal standards. The incubation mixtures were centrifuged at 4000×g for 20 min, and then the supernatants were analyzed by LC-MS/MS after dilution. SigmaPlot was applied to plot % control activity versus the test compound concentrations, and for non-linear regression analysis of the data. IC50 values of test articles were determined using 3-parameter logistic equation.

CYP2C19 = target: T6, CYP2C19 (Homo sapiens, UniProt P33261); assay: CYPs inhibition in pooled human liver microsomes, probe substrate S-mephenytoin; format: in vitro ADME
T6 construct: 0.2 mg/mL human liver microsomes was pre-incubated in 180 μL reaction mixture; from tissue; host or cells: pooled human liver microsomes
T6 sequence (P33261 whole entry): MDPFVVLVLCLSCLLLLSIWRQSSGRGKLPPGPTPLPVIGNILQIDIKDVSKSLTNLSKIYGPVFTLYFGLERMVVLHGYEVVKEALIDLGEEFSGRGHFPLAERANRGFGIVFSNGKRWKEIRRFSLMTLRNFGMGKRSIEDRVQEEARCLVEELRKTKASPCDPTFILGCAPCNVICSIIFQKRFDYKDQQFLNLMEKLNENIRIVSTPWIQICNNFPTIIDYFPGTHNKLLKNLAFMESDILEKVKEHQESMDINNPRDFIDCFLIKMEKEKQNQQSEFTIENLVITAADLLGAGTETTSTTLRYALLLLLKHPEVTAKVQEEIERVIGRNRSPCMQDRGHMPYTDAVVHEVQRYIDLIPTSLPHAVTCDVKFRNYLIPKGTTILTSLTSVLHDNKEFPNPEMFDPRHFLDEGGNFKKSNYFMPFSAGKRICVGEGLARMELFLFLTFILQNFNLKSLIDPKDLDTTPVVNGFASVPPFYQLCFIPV
Procedure: as §2

CYP2C9 = target: T7, CYP2C9 (Homo sapiens, UniProt P11712); assay: CYPs inhibition in pooled human liver microsomes, probe substrate Diclofenac; format: in vitro ADME
T7 construct: 0.2 mg/mL human liver microsomes was pre-incubated in 180 μL reaction mixture; from tissue; host or cells: pooled human liver microsomes
T7 sequence (P11712 whole entry): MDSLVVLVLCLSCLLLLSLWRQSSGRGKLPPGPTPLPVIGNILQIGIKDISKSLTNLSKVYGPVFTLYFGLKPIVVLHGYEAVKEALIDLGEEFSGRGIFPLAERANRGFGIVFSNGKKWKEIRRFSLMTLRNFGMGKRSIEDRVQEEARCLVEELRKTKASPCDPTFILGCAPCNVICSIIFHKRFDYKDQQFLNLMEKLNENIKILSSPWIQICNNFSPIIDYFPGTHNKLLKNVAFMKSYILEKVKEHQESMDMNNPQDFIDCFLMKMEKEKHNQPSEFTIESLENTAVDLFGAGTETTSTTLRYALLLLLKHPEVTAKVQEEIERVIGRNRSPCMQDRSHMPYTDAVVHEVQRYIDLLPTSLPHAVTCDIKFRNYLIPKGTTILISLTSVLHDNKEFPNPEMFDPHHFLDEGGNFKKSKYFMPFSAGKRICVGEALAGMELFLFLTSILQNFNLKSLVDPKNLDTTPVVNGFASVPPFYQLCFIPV
Procedure: as §2

[2] = IC50 JAK1 (5 nM) (1 m MATP), JAK1 5 nM, 1 mM ATP
[3] = IC50 JAK2 ([…]) (1 mM ATP), 1 mM ATP
[4] = IC50 JAK2 ([…]) (Km ATP), Km ATP
[5] = IC50 JAK1 (10 nM) (Km ATP), JAK1 10 nM, Km ATP

T1 sequence (P23458 whole entry): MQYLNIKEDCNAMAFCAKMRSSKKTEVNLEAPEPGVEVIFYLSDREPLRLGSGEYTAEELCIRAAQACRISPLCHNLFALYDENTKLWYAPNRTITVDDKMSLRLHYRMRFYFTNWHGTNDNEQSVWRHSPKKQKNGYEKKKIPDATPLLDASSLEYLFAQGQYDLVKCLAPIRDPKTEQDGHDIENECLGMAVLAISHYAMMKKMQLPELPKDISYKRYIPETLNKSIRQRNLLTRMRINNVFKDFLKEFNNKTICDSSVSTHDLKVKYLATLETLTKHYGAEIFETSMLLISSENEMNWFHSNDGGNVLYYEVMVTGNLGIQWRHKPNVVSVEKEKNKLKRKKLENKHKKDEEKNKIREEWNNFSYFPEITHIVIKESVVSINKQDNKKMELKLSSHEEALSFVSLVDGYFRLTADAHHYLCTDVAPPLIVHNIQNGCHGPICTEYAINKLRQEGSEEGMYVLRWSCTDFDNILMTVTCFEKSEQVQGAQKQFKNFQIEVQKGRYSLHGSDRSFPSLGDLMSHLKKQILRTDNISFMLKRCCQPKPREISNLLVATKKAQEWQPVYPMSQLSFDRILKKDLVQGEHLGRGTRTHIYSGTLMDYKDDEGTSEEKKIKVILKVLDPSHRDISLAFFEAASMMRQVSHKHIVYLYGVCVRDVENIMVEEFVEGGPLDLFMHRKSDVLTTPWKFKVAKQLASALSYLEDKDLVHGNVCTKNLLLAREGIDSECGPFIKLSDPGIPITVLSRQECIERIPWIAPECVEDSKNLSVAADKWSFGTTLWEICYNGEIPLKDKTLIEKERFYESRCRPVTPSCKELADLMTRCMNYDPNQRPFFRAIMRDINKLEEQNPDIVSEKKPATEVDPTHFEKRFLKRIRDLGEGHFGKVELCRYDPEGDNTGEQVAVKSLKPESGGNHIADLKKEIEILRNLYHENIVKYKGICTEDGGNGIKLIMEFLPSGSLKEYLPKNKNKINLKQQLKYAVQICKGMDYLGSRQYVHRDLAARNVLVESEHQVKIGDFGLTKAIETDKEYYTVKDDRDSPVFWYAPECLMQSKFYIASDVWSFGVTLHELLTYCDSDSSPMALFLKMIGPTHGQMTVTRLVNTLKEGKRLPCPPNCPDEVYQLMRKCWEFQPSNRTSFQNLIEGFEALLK

| Compound | pIC50 (JAK1; [2]) | pIC50 (JAK2; [3]) | pIC50 (TYK2) | microsomal CLint at 1 μM [1] [µL/min/mg] | pIC50 (JAK2V617F) | pIC50 (CYP3A4) | pIC50 (CYP2C19) | pIC50 (CYP2C9) | pIC50 (JAK1; read-out: IC50 JAK1 (5 nM) (1 m MATP), JAK1 5 nM, 1 mM ATP) | pIC50 (JAK2; [4]) | pIC50 (JAK1; [5]) |
| --- | --- | --- | --- | --- | --- | --- | --- | --- | --- | --- | --- |
| N#CCNC(=O)c1ccc(-c2nc(Nc3cnn(C4CC4)c3)ncc2Cl)cc1 [Example 95, 4-(5-Chloro-2-((1-cyclopropyl-1H-pyrazol-4-yl)amino)pyrimidin-4-yl)-N-(cyanomethyl)benzamide] | 8.14 | 8.35 | 7.23 | 8.84 | 7.60 |  |  |  |  |  |  |
| C[C@@H](C#N)NC(=O)c1ccc(-c2nc(Nc3cnn(C4CCN(C)CC4)c3)ncc2Cl)cc1 [Example 43, (S)-4-(5-Chloro-2-((1-(1-methylpiperidin-4-yl)-1H-pyrazol-4-yl)amino)pyrimidin-4-yl)-N-(1-cyanoethyl)benzamide] | 7.95 | 9.24 | 7.54 | 15 | 7.35 | < 4.30 | < 4.30 | < 4.30 |  |  |  |
| Cc1cnc(Nc2cnn(C3CC(C)(C)OC(C)(C)C3)c2)nc1-c1ccc(C(=O)NCC#N)cc1 [Example 113, N-(cyanomethyl)-4-(5-methyl-2-((1-(2,2,6,6-tetramethyltetrahydro-2H-pyran-4-yl)-1H-pyrazol-4-yl)amino)pyrimidin-4-yl)benzamide] |  | > 9.60 | 8.78 | 203 |  | 4.71 | 5.20 | 4.85 | 7.98 |  |  |
| CC[C@@H](C#N)NC(=O)c1ccc(-c2nc(Nc3cnn(C4CCNCC4)c3)ncc2Cl)cc1 [Example 183, (S)-4-(5-chloro-2-((1-(piperidin-4-yl)-1H-pyrazol-4-yl)amino)pyrimidin-4-yl)-N-(1-cyanopropyl)benzamide] | 8.71 | 9.38 | 8.64 | 12 |  | 4.74 | < 4.30 | 5.50 |  |  |  |
| Cn1cc(Nc2ncc(Cl)c(-c3ccc(C(=O)NCC#N)cc3)n2)cn1 [Example 34, 4-(5-Chloro-2-((1-methyl-1H-pyrazol-4-yl)amino)pyrimidin-4-yl)-N-(cyanomethyl)benzamide] | 7.93 | 7.61 | 7.01 | 12.3 |  |  |  |  |  | 9.15 |  |
| Cc1cnc(Nc2cnn(C)c2)nc1-c1ccc(C(=O)NC(C)C)cc1 [Example 223, N-isopropyl-4-(5-methyl-2-((1-methyl-1H-pyrazol-4-yl)amino)pyrimidin-4-yl)benzamide] | 5.40 | 5.84 | < 5.30 |  | 5.34 |  |  |  |  |  |  |
| C[C@@H](C#N)NC(=O)c1ccc(-c2nc(Nc3cnn(C)c3)ncc2Cl)cc1 [Example 125, (S)-4-(5-chloro-2-((1-methyl-1H-pyrazol-4-yl)amino)pyrimidin-4-yl)-N-(1-cyanoethyl)benzamide] | 7.72 | 7.38 | 6.84 | 21.9 |  |  |  |  |  | 8.83 |  |
| CC[C@@H](C#N)NC(=O)c1ccc(-c2nc(Nc3cnn(C4CCN(C)CC4)c3)ncc2C)cc1 [Example 184, (S)—N-(1-Cyanopropyl)-4-(5-methyl-2-((1-(1-methylpiperidin-4-yl)-1H-pyrazol-4-yl)amino)pyrimidin-4-yl)benzamide] | 9.21 | 9.43 | 8.87 | 11.4 |  | < 4.30 | < 4.30 | < 4.30 |  |  |  |
| Cc1cnc(Nc2cnn(C3CCN(C(=O)CO)CC3)c2)nc1-c1ccc(C(=O)N[C@@H](C)C#N)cc1 [Example 119, (S)—N-(1-cyanoethyl)-4-(2-((1-(1-(2-hydroxyacetyl)piperidin-4-yl)-1H-pyrazol-4-yl)amino)-5-methylpyrimidin-4-yl)benzamide] | 8.07 | > 9.60 | 8.29 |  | 9.02 | < 4.30 | < 4.30 | < 4.30 |  |  |  |
| CC[C@@H](C#N)NC(=O)c1ccc(-c2nc(Nc3cnn(C4CC4)c3)ncc2Cl)cc1 [Example 61, (S)-4-(5-chloro-2-((1-cyclopropyl-1H-pyrazol-4-yl)amino)pyrimidin-4-yl)-N-(1-cyanopropyl)benzamide] | 8.24 | 8.33 | 7.28 |  | 7.46 |  |  |  |  |  |  |
| C[C@@H](C#N)NC(=O)c1ccc(-c2nc(Nc3cnn(C4CC4)c3)ncc2Cl)cc1 [Example 111, (S)-4-(5-Chloro-2-((1-cyclopropyl-1H-pyrazol-4-yl)amino)pyrimidin-4-yl)-N-(1-cyanoethyl)benzamide] | 8.06 | 8.55 | 7.36 |  | 7.50 |  |  |  |  |  |  |
| C[C@@H](C#N)NC(=O)c1ccc(-c2nc(Nc3cnn(C4CCNCC4)c3)ncc2Cl)cc1 [Example 165, (S)-4-(5-chloro-2-((1-(piperidin-4-yl)-1H-pyrazol-4-yl)amino)pyrimidin-4-yl)-N-(1-cyanoethyl)benzamide] | 8.23 | 8.94 | 7.19 |  |  | 4.38 | < 4.30 | 4.72 |  |  |  |
| CNC(=O)c1ccc(-c2nc(Nc3cnn(C)c3)ncc2C)cc1 [Example 10, N-Methyl-4-(5-methyl-2-((1-methyl-1H-pyrazol-4-yl)amino)pyrimidin-4-yl)benzamide] | < 5.30 | < 5.30 | < 5.30 |  | < 5.30 |  |  |  |  | 7.52 |  |
| Cc1cnc(Nc2cnn(CC#N)c2)nc1-c1ccc(C(=O)NCC#N)cc1 [Example 4, N-(Cyanomethyl)-4-(2-((1-(cyanomethyl)-1H-pyrazol-4-yl)amino)-5-methylpyrimidin-4-yl)benzamide] | 8.06 | 7.37 | 7.20 | 1.22 | 6.96 | < 4.30 | < 4.30 | < 4.30 |  | 8.69 | 8.76 |
| CCNC(=O)c1ccc(-c2nc(Nc3cnn(C)c3)ncc2C)cc1 [Example 222, N-ethyl-4-(5-methyl-2-((1-methyl-1H-pyrazol-4-yl)amino)pyrimidin-4-yl)benzamide] | < 5.30 | 5.34 | < 5.30 |  | < 5.30 |  |  |  |  | 6.83 | 5.72 |
